Measurements taken from ChEMBL document CHEMBL4765444, “Chimera induced protein degradation: PROTACs and beyond” (Eur J Med Chem, 2020).

System: HEK293
Assay: Induction of VHL-mediated SGK3 degradation in HEK293 cells at 10 uM incubated for 48 hrs by immunoblot analysis relative to control
Type: cell-based
Conditions: Homo sapiens

Row | SMILES | Activity
1 | COc1ccc(Cl)c(S(=O)(=O)Nc2ccc(-c3nc(OC[C@H]4CN(CCCCCCOCCOCCOCCOCC(=O)N[C@H](C(=O)N5C[C@H](O)C[C@H]5C(=O)NCc5ccc(-c6scnc6C)cc5)C(C)(C)C)CCO4)c4c(C)n[nH]c4n3)cc2)c1 | > 50%
2 | Cc1ccc(F)c(S(=O)(=O)Nc2ccc(-c3nc(OC[C@H]4CN(CCOCCOCCOCCOCC(=O)N[C@H](C(=O)N5C[C@H](O)C[C@H]5C(=O)NCc5ccc(-c6scnc6C)cc5)C(C)(C)C)CCO4)c4cn[nH]c4n3)cc2)c1 | > 50%
3 | Cc1ccc(F)c(S(=O)(=O)Nc2ccc(-c3nc(OC[C@H]4CN(CCCCCCOCCCCCCOCC(=O)N[C@H](C(=O)N5C[C@H](O)C[C@H]5C(=O)NCc5ccc(-c6scnc6C)cc5)C(C)(C)C)CCO4)c4cn[nH]c4n3)cc2)c1 | > 50%
4 | Cc1ccc(F)c(S(=O)(=O)Nc2ccc(-c3nc(OC[C@H]4CN(CCOCCOCCOCCOCCOCC(=O)N[C@H](C(=O)N5C[C@H](O)C[C@H]5C(=O)NCc5ccc(-c6scnc6C)cc5)C(C)(C)C)CCO4)c4cn[nH]c4n3)cc2)c1 | > 50%
5 | Cc1ccc(F)c(S(=O)(=O)Nc2ccc(-c3nc(OC[C@H]4CN(CCOCCOCC(=O)N[C@H](C(=O)N5C[C@H](O)C[C@H]5C(=O)NCc5ccc(-c6scnc6C)cc5)C(C)(C)C)CCO4)c4cn[nH]c4n3)cc2)c1 | > 50%
6 | Cc1ccc(F)c(S(=O)(=O)Nc2ccc(-c3nc(OC[C@H]4CN(CCCCCCOCCOCCOCCOCC(=O)N[C@H](C(=O)N5C[C@H](O)C[C@H]5C(=O)NCc5ccc(-c6scnc6C)cc5)C(C)(C)C)CCO4)c4cn[nH]c4n3)cc2)c1 | > 50%
7 | Cc1ccc(F)c(S(=O)(=O)Nc2ccc(-c3nc(OC[C@H]4CN(CCOCCOCCOCC(=O)N[C@H](C(=O)N5C[C@H](O)C[C@H]5C(=O)NCc5ccc(-c6scnc6C)cc5)C(C)(C)C)CCO4)c4cn[nH]c4n3)cc2)c1 | > 50%
8 | Cc1ccc(F)c(S(=O)(=O)Nc2ccc(-c3nc(OC[C@H]4CN(CCCCCCOCCOCCOCC(=O)N[C@H](C(=O)N5C[C@H](O)C[C@H]5C(=O)NCc5ccc(-c6scnc6C)cc5)C(C)(C)C)CCO4)c4cn[nH]c4n3)cc2)c1 | > 50%
9 | COc1ccc(Cl)c(S(=O)(=O)Nc2ccc(-c3nc(OC[C@H]4CN(CCCCCCOCCCCCCOCC(=O)N[C@H](C(=O)N5C[C@H](O)C[C@H]5C(=O)NCc5ccc(-c6scnc6C)cc5)C(C)(C)C)CCO4)c4c(C)n[nH]c4n3)cc2)c1 | > 50%

Molecular target: Protein cereblon/Tyrosine-protein kinase ABL1/Breakpoint cluster region protein (Homo sapiens) (UniProt P00519+P11274+Q96SW2)
Sequence (P00519 whole entry, looked up): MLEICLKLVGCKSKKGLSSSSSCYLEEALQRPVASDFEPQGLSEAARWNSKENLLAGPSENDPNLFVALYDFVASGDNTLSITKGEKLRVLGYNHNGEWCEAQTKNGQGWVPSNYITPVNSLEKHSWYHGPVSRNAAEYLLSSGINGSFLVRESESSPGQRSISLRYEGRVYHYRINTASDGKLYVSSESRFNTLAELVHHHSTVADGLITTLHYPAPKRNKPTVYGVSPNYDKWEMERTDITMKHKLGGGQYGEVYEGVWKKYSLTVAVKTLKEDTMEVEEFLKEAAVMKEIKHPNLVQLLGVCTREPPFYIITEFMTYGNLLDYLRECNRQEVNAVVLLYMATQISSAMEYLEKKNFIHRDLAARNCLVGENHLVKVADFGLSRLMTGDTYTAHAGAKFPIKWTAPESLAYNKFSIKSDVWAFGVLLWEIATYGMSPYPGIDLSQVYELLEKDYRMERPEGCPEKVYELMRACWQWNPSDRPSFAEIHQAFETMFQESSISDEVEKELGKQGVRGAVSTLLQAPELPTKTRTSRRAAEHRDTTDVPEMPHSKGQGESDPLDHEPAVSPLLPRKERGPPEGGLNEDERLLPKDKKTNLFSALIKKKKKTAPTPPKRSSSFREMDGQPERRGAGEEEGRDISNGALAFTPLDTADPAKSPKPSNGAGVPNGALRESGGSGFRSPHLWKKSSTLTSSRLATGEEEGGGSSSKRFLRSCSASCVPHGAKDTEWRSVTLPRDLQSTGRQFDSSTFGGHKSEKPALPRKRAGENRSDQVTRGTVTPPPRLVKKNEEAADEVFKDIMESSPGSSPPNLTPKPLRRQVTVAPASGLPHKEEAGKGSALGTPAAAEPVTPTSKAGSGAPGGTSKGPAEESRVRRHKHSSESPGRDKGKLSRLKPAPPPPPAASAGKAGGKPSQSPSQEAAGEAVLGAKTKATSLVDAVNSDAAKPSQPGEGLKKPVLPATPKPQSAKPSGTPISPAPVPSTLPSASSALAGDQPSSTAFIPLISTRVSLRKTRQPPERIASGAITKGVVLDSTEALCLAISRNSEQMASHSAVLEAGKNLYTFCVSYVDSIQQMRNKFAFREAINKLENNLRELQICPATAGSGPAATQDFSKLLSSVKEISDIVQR
Sequence (P11274 whole entry, looked up): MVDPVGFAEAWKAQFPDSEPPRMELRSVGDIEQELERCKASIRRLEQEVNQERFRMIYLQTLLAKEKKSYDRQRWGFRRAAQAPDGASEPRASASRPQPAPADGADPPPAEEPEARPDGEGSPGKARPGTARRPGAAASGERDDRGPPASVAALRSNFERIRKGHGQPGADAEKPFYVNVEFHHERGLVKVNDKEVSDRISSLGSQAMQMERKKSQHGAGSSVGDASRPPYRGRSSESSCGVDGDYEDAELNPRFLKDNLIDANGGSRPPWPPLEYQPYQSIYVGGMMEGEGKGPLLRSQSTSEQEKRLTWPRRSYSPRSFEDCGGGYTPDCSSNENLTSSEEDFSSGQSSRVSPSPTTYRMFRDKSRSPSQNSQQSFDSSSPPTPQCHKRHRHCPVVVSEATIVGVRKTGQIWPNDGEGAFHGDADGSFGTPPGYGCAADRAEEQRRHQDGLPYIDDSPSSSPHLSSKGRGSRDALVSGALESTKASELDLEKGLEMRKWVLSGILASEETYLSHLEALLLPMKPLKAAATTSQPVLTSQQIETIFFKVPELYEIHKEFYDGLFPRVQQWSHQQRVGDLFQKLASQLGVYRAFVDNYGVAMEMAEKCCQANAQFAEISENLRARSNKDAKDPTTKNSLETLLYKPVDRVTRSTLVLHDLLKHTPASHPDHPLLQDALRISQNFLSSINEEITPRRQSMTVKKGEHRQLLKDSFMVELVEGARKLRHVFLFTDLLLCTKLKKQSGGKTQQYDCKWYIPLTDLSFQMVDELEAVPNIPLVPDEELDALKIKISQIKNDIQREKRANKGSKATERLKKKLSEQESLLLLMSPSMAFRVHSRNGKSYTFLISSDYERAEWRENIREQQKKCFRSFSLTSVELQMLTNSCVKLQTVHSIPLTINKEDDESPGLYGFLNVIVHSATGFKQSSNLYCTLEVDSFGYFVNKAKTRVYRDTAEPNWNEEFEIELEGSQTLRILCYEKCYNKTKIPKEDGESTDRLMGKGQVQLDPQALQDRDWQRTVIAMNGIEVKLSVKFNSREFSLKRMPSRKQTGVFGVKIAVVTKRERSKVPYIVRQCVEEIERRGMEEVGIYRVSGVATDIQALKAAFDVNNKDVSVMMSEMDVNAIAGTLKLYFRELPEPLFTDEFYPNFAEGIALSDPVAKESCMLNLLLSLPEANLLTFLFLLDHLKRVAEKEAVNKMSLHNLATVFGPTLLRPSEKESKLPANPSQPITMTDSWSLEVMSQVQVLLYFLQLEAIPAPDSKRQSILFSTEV
Sequence (Q96SW2 whole entry, looked up): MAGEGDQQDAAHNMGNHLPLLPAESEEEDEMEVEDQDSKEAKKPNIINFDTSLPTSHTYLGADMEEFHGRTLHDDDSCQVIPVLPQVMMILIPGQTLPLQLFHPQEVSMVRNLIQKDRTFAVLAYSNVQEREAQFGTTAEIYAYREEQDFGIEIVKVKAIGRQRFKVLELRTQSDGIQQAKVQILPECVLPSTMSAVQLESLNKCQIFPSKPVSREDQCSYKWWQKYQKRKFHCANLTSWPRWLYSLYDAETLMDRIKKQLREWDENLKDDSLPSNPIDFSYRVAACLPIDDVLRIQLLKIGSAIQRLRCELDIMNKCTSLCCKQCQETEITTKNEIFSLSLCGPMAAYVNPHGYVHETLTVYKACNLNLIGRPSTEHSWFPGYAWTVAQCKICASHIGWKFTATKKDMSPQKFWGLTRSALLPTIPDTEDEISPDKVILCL
Assay: Induction of CRBN-mediated BCR-ABL degradation in human K562 cells at 1 uM incubated for 24 hrs by Western blot analysis relative to control
Type: cell-based
Conditions: not given

Row | SMILES | Activity
10 | Cc1nc(Nc2ncc(C(=O)Nc3c(C)cccc3Cl)s2)cc(N2CCN(CCCCCCOCCOCCOCCCCCC(=O)Nc3cccc4c3C(=O)N(C3CCC(=O)NC3=O)C4=O)CC2)n1 (stereo not given) | > 60%
